Source: US20050209157A1, “Short bioactive peptides and methods for their use” (priority 2001, published 2005)
Like-named read-outs stand apart in the source and are kept apart here. No end group written: not given here.

Key:
[1] = tested on: P. aeruginosa; format: cell-based, Pseudomonas aeruginosa; conditions: P. aeruginosa H744; MIC of nalidixic acid with peptide at ¼ MIC
Summary of the method: (§1)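 Efflux-mutant strains were tested with two-fold serial dilutions of chloramphenicol or nalidixic acid, alone and with peptide held at ¼ of its own MIC.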

[2] = tested on: P. aeruginosa H774; format: cell-based, Pseudomonas aeruginosa; conditions: P. aeruginosa H744; nalidixic acid + peptide at ¼ MIC; 0.5 or less = synergy
Summary of the method: as §1

[3] = tested on: P. aeruginosa H374; format: cell-based, Pseudomonas aeruginosa; conditions: for MIC Cm-comb.: MIC of chloramphenicol with peptide at ¼ MIC; for MIC Nal-comb.: MIC of nalidixic acid with peptide at ¼ MIC; for FIC Index: 0.5 or less = synergy
Summary of the method: as §1

[4] = tested on: WI38; conditions: MTT, 24 hours with peptide; normal fibroblast line
[5] = tested on: yeast (Saccharomyces cerevisiae); test: Antimicrobial assay I, yeast assay in RPMI 1640; format: cell-based; conditions: RPMI 1640 media
[6] = tested on: laminin; test: Laminin stimulation, ELISA on fibroblast cell lines; format: cell-based
Protocol: Fibroblast cell lines were cultured under standard conditions and assayed for collagen and laminin using an ELISA system manufactured by Panvera (Madison, Wis.). Antibodies for collagen and laminin manufactured by Takara Shuzo Co., Ltd Japan. […] The other three peptides tested neither stimulated nor inhibited production (i.e. no effect was observed).

[7] = in vitro; conditions: human, WI38 normal lung fibroblast cells, LD50 WI38, WI38 normal lung fibroblast line, MTT, 24 hours with peptide
[8] = tested on: MCF7; test: Anti-cancer assay, MTT, LD50; format: cell-based; conditions: MCF7 breast adenocarcinoma line, MTT, 24 hours with peptide
From the text: (§2) Numbers are LD50 values (μg/mL).

[9] = tested on: HeLaS3; test: Anti-cancer assay, MTT, LD50; format: cell-based; conditions: 24 hours with peptide, cervical carcinoma
From the text: as §2

[10] = tested on: BMKC; test: Anti-cancer assay, MTT, LD50; format: cell-based; conditions: BMKC cloned melanoma line, 24 hours with peptide
From the text: as §2

[11] = tested on: H1299; test: Anti-cancer assay, MTT, LD50; format: cell-based; conditions: 24 hours with peptide, lung large cell carcinoma
From the text: as §2

[12] = tested on: SW480; test: Anti-cancer assay, MTT, LD50; format: cell-based; conditions: SW480 colon adenocarcinoma line, 24 hours with peptide
From the text: as §2

[13] = tested on: PC3; test: Anti-cancer assay, MTT, LD50; format: cell-based; conditions: 24 hours with peptide, prostate adenocarcinoma
From the text: as §2

[14] = tested on: S. typhimurium 14028S; format: cell-based, Salmonella typhimurium; conditions: mean of three; 16 to 20 hours at 35° C.; in µg/mL
[15] = tested on: Pseudomonas aeruginosa ATCC 9027; test: Antimicrobial assay I, MIC by OD measurement; format: cell-based; conditions: 37° C. for 24 hours, absorbance 620 nm
[16] = tested on: Staphylococcus aureus ATCC 6538; test: Antimicrobial assay I, MIC by OD measurement; format: cell-based; conditions: 37° C. for 24 hours, absorbance 620 nm
[17] = in vitro; format: cell-based, human; conditions: human, human red blood cells, pH 7, hemolytic assay, concentration at 50% hemolysis, 1 hour at 37° C.; read-out: LD50
[18] = tested on: P. acne ATCC 6919; test: Antimicrobial assays II, NCCLS broth microdilution MIC; format: cell-based, Propionibacterium acnes; conditions: mean of three, in µg/mL
[19] = tested on: S. epidermidis C621; format: cell-based, Staphylococcus epidermidis; conditions: mean of three; 16 to 20 hours at 35° C.
[20] = tested on: S. pyogenes ATCC19615; test: Antimicrobial assays II, NCCLS broth microdilution MIC; format: cell-based, Streptococcus pyogenes; conditions: mean of three, in µg/mL
[21] = tested on: S. pyogenes M76; test: as above; format: cell-based, Streptococcus pyogenes; conditions: mean of three; 16 to 20 hours at 35° C.
[22] = chloramphenicol + peptide at ¼ MIC
[23] = nalidixic acid + peptide at ¼ MIC, FIC=0.25+MIC comb/MIC alone

MPKWKVFKKIEKVGRNIRNGIVKAGPAIAVLGEAKALG-NH2 [P12, reference compound]
MIC Nal-comb. [1]: 312 µg/mL | FIC Index [2]: 0.75 | MIC Cm-comb. [3]: 16 µg/mL | MIC Nal-comb. [3]: 2500 µg/mL | FIC Index [3, 22]: 1.25 | FIC Index [3, 23]: 0.75 | WI38 LD50 [4]: 950 µg/mL | yeast (MIC or MFC) [5]: > (> indicates greater than 200 μg/mL) | Laminin stimulation [6]: 0% | CC50 at 24 h [7]: 950 µg/mL | LD50 MCF7 [8]: 540 µg/mL | HeLaS3 LD50 [9]: > (> indicates greater than 1000) | LD50 BMKC [10]: > (> indicates greater than 1000) | H1299 LD50 [11]: 720 µg/mL | LD50 SW480 [12]: > (> indicates greater than 1000) | PC3 LD50 [13]: 630 µg/mL | S. typhimurium 14028S MIC [14]: 4 | paerug9027 (MIC) [15]: 100 µg/mL | staph6538 (MIC) [16]: > (> indicates greater than 200 μg/mL)

FALKALKKLKKALKKAL-NH2 [P153]
HC50 at 1 h [17]: 800 µg/mL | P. acne MIC [18]: 4 | MIC Nal-comb. [1]: 624 µg/mL | FIC Index [2]: 1.25 | MIC Cm-comb. [3]: 8 µg/mL | MIC Nal-comb. [3]: 5000 µg/mL | FIC Index [3, 22]: 0.75 | FIC Index [3, 23]: 1.25 | WI38 LD50 [4]: 130 µg/mL | S. epidermidis C621 MIC [19]: 4 µg/mL | yeast (MIC or MFC) [5]: 100 µg/mL | S. pyogenes MIC [20]: 2 | Laminin stimulation [6]: 32% | CC50 at 24 h [7]: 130 µg/mL | LD50 MCF7 [8]: 64 µg/mL | HeLaS3 LD50 [9]: 140 µg/mL | LD50 BMKC [10]: 165 µg/mL | H1299 LD50 [11]: 50 µg/mL | LD50 SW480 [12]: 61 µg/mL | PC3 LD50 [13]: 97 µg/mL | S. pyogenes M76 MIC [21]: 2 µg/mL | paerug9027 (MIC) [15]: 25 µg/mL | staph6538 (MIC) [16]: 5 µg/mL

FAVGLRAIKRALKKLRRGVRKVAKDL-NH2 [P157, reference compound]
HC50 at 1 h [17]: 850 µg/mL | P. acne MIC [18]: 4 | MIC Nal-comb. [1]: 624 µg/mL | FIC Index [2]: 1.25 | MIC Cm-comb. [3]: 8 µg/mL | MIC Nal-comb. [3]: 2500 µg/mL | FIC Index [3, 22]: 0.75 | FIC Index [3, 23]: 0.75 | WI38 LD50 [4]: 500 µg/mL | S. epidermidis C621 MIC [19]: 4 µg/mL | yeast (MIC or MFC) [5]: > (> indicates greater than 200 μg/mL) | S. pyogenes MIC [20]: 8 | CC50 at 24 h [7]: 500 µg/mL | LD50 MCF7 [8]: 240 µg/mL | HeLaS3 LD50 [9]: > (> indicates greater than 1000) | LD50 BMKC [10]: 600 µg/mL | H1299 LD50 [11]: 315 µg/mL | LD50 SW480 [12]: 530 µg/mL | PC3 LD50 [13]: 375 µg/mL | S. typhimurium 14028S MIC [14]: 8 | S. pyogenes M76 MIC [21]: 8 µg/mL | paerug9027 (MIC) [15]: > (> indicates greater than 200 μg/mL) | staph6538 (MIC) [16]: 200 µg/mL
